From US5045566A, “Novel imidate insecticides” (ICI Americas Inc., priority 1989, dated 1991)

Experiments:
Assay type in all cases: in vivo
[1] = test system: Housefly [Musca domestica]; assay: Housefly contact mortality in dishes (HF), 48 hours; details: μg of test compound per 25 female flies
Protocol: (§1) The compounds in Tables 1 and 2 above were tested for insecticidal activity using the following testing procedures. LC50 values, based on the results of these tests and calculated according to dosage-mortality curves, are expressed in Table 3.
Housefly [Musca domestica]:
Test compounds were diluted in acetone and aliquots pipetted onto the bottom of aluminum dishes. To ensure even spreading of the chemical on the bottom of the dishes, 1 ml of acetone containing 0.01% peanut oil was also added to each dish. After all solvents had evaporated, the dishes were placed in circular cardboard cages containing 25 female houseflies, 1-2 days old. The cages were covered on the bottom with cellophane and on the top with tulle netting, and each contained a sugar-water saturated cotton plug for maintenance of the flies. Mortality was recorded after 48 hours. Test levels ranged from 100 μg/25 female houseflies downward. The LC-50 value is expressed below in Table 3 under the heading "HF", in terms of μg of the test compound per 25 female flies.

[2] = test system: Tobacco Budworm [Heliothis virescens (Fabricius)] eggs; assay: Tobacco budworm eggs (TBW-E); details: percent in solution; 2-day old eggs
Protocol: as §1
Tobacco Budworm [Heliothis virescens (Fabricius)]:
(b). Eggs: Paper towel patches of 2-day old eggs of the tobacco budworm were dipped in acetone solutions of the test compound and placed in petri dishes containing a portion of larval rearing medium. Treated eggs were maintained at 78° F. and mortality was recorded after all control eggs had hatched and the young larvae were feeding on the media. Test concentrations ranged from 0.1% downward. The LC-50 value is expressed below in Table 3 under the heading "TBW-E" in terms of percent of the test compound in the solution.

[3] = test system: Black Bean Aphid [Aphis fabae (Scop.)]; assay: Black bean aphid spray test on nasturtium (BBA), 48 hours; details: percent of test compound in sprayed solution
Protocol: as §1
Black Bean Aphid [Aphis fabae (Scop.)]:
Nasturtium plants (Tropaeolum sp.) approximately 5 cm tall, were transplanted into sandy loam soil in small cups and infested with 25-50 black bean aphids of mixed ages. Twenty-four hours later they were sprayed to the point of runoff with 50-50 acetone-water solutions of the test compounds. Treated plants were held in the greenhouse and mortality was recorded after 48 hours. Test concentrations ranged from 0.05% downward. The LC-50 value is expressed below in Table 3 under the heading "BBA" in terms of percent of the test compound in the sprayed solution.

[4] = test system: Cabbage Looper [Trichoplusia ni (Hubner)]; assay: Cabbage looper leaf dip (CL), 3-5 days; details: percent in solution, second-instar larvae
Protocol: as §1
Cabbage Looper [Trichoplusia ni (Hubner)]:
Test compounds were diluted in a 50-50 acetone-water solution. Cotyledons of hyzini squash (Calabacita abobrinha), approximately 1×1.5 inches, were immersed in the test solutions for 2-3 seconds and placed on a wire screen to dry. The dried leaves were placed in petri dishes containing a moistened piece of filter paper and infested with 5 second-instar cabbage looper larvae. The dishes were placed in a high humidity chamber. Mortality of the larvae was recorded 3-5 days later. Test concentrations ranged from 0.1% downward. The LC-50 value is expressed below in Table 3 under the heading "CL" in terms of percent of the test compound in solution.

SMILES | LC50 HF [1] | LC50 TBW E (eggs) [2] | LC50 BBA [3] | LC50 CL [4]
CC(C)C(=Nc1cc(C(F)(F)F)ccc1F)OCc1cccc(Oc2ccccc2)c1 [Compound 84] | 93 µg | 0.1% | 0.03% | 0.006%
Cc1cc(N=C(OCc2cccc(Oc3ccccc3)c2)C(C)C)ccc1F [Compound 87] | 5 µg | 0.03% | 0.001% | 0.004%
Cc1ccc(Cl)c(N=C(OCc2cccc(Oc3ccccc3)c2)C(C)C)c1 [Compound 93] | 64 µg | > 0.1% | 0.003% | 0.005%
Cc1ccc(N=C(OCc2cccc(Oc3ccccc3)c2)C(C)C)c(Cl)c1 [Compound 94] | 44 µg | 0.075% | 0.001% | 0.0045%
COc1cc(N=C(OCc2cccc(Oc3ccccc3)c2)C(C)C)c(OC)cc1Cl [Compound 99] | > 100 µg | > 0.1% | > 0.05% | 0.016%
COc1ccc(OC)c(N=C(OCc2cccc(Oc3ccccc3)c2)C(C)C)c1Cl [Compound 100] | 100 µg | > 0.1% | > 0.05% | 0.05%
CCSc1ccc(N=C(OCc2cccc(Oc3ccccc3)c2)C(C)C)cc1Cl [Compound 103] | > 100 µg | > 0.1% | 0.001% | 0.015%
CCOC(=O)c1ccc(N=C(OCc2cccc(Oc3ccccc3)c2)C(C)C)cc1Cl [Compound 104] | > 100 µg | > 0.1% | 0.003% | 0.004%
CC(C)(C)C(=Nc1ccc(Cl)c([N+](=O)[O-])c1)OCc1cccc(Oc2ccccc2)c1 [Compound 105] | > 100 µg | > 0.1% | 0.05% | 0.018%
CC(C)(C)C(=Nc1ccc(Br)c(Cl)c1)OCc1cccc(Oc2ccccc2)c1 [Compound 106] | > 100 µg | > 0.1% | 0.01% | 0.014%
Cc1ccc(N=C(OCc2cccc(Oc3ccccc3)c2)C(C)(C)C)cc1Cl [Compound 107] | > 100 µg | > 0.1% | 0.01% | 0.007%
Cc1cc(Cl)ccc1N=C(OCc1cccc(Oc2ccccc2)c1)C(C)(C)C [Compound 109] | > 100 µg | > 0.1% | > 0.05% | 0.002%
CC(C)(Cl)C(=Nc1ccc(Cl)c2ccccc12)OCc1cccc(Oc2ccccc2)c1 [Compound 111] | > 100 µg | > 0.1% | 0.003% | 0.1%
Cc1cc(N=C(OCc2cccc(Oc3ccccc3)c2)C(C)C)ccc1Br [Compound 127] | 58 µg | 0.04% | 0.001% | 0.01%
CC(C)C(=Nc1c(Br)cc(F)cc1Br)OCc1cccc(Oc2ccccc2)c1 [Compound 130] | > 100 µg | > 0.1% | 0.05% | 0.005%
Cc1cc(Br)ccc1N=C(OCc1cccc(Oc2ccccc2)c1)C(C)C [Compound 133] | 66 µg | 0.1% | 0.003% | 0.005%
CC(C)(C)C(=Nc1cccc(Br)c1)OCc1cccc(Oc2ccccc2)c1 [Compound 134] | > 100 µg | > 0.1% | > 0.05% | 0.015%
CC(C)C(=Nc1cccc(I)c1)OCc1cccc(Oc2ccccc2)c1 [Compound 136] | 9 µg | 0.08% | 0.002% | 0.004%
CSc1ccc(N=C(OCc2cccc(Oc3ccccc3)c2)C(Cl)Cl)cc1 [Compound 141] | 35 µg | > 0.1% | 0.006% | < 0.1%

SMILES | LC50 HF [1] | LC50 TBW E (eggs) [2] | LC50 BBA [3] | LC50 CL [4]
Cc1cccc(N=C(OCc2cccc(Oc3ccccc3)c2)C(C)C)c1C [Compound 148] | 18 µg | 0.025% | 0.0003% | 0.0025%
COc1ccc(N=C(OCc2cccc(Oc3ccccc3)c2)C(C)C)c(C)c1 [Compound 149] | 17 µg | 0.05% | 0.001% | 0.007%
COc1ccc(C)cc1N=C(OCc1cccc(Oc2ccccc2)c1)C(C)C [Compound 150] | 89 µg | > 0.1% | 0.03% | 0.01%
CCCCc1ccc(N=C(OCc2cccc(Oc3ccccc3)c2)C(C)C)cc1 [Compound 152] | > 100 µg | > 0.1% | 0.01% | 0.009%
CCC(=Nc1ccc(CC)cc1)OCc1cccc(Oc2ccccc2)c1 [Compound 157] | 25 µg | > 0.1% | 0.002% | 0.009%
Cc1ccc(N=C(OCc2cccc(Oc3ccccc3)c2)C(C)C)cc1C [Compound 158] | 9 µg | 0.1% | 0.0015% | 0.003%
CCOc1ccc(N=C(OCc2cccc(Oc3ccccc3)c2)C(C)(C)C)cc1 [Compound 164] | > 100 µg | > 0.1% | > 0.05% | 0.005%
CC(C)c1ccc(N=C(OCc2cccc(Oc3ccccc3)c2)C(C)(C)C)cc1 [Compound 165] | > 100 µg | > 0.1% | > 0.05% | 0.007%
CSc1cccc(N=C(OCc2cccc(Oc3ccccc3)c2)C(C)C)c1 [Compound 166] | 22 µg | > 0.1% | 0.001% | 0.009%
Cc1ccc(N=C(OCc2cccc(Oc3ccccc3)c2)C(C)(C)C)cc1C [Compound 167] | > 100 µg | > 0.1% | > 0.05% | 0.02%
CCOC(=O)c1cccc(N=C(OCc2cccc(Oc3ccccc3)c2)C(C)(C)C)c1 [Compound 168] | > 100 µg | > 0.1% | > 0.05% | 0.1%
COc1ccc(N=C(OCc2cccc(Oc3ccccc3)c2)C(C)C)cc1OC [Compound 169] | 10 µg | > 0.1% | 0.003% | 0.009%
CC(C)(C)C(=Nc1cccc([N+](=O)[O-])c1)OCc1cccc(Oc2ccccc2)c1 [Compound 175] | > 100 µg | > 0.1% | > 0.05% | 0.018%
CC(C)C(=Nc1ccc(F)cc1)OCc1cccc(Oc2cccc(Cl)c2)c1 [Compound 205] | 50 µg | > 0.1% | 0.03% | 0.004%
CC(C)C(=Nc1ccc(F)cc1)OCc1cccc(Oc2ccc(F)cc2F)c1 [Compound 206] | 50 µg | > 0.1% | 0.03% | 0.0017%
CC(C)C(=Nc1ccc(C#N)cc1)OCc1cccc(Oc2cccc(Cl)c2)c1 [Compound 208] | 27 µg | > 0.1% | 0.05% | 0.0035%
CCC(C)C(=Nc1ccc(Cl)c(Cl)c1)OCc1cccc(Oc2ccc(F)cc2)c1 (stereo not shown) [Compound 211] | 61 µg | > 0.1% | 0.01% | 0.0017%
CC(C)C(=Nc1ccc(F)c(F)c1)OCc1cccc(Oc2ccc(C#N)cc2)c1 [Compound 212] | 20 µg | 0.045% | 0.05% | 0.0005%
